Results published in the supplement of paper PMC10307832.

Key:
Assay in all cases: relative viability (nuclei count vs DMSO), 5 days (fraction); higher = more cells survive
GW-2580 + Dasatinib = compound: COC1=CC=C(C=C1)COC2=C(C=C(C=C2)CC3=CN=C(N=C3N)N)OC [GW-2580] + Cc1nc(Nc2ncc(C(=O)Nc3c(C)cccc3Cl)s2)cc(N2CCN(CCO)CC2)n1 [Dasatinib] (partner 0.075 µM)
Summary of the method: (§1)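 One day after seeding in 1536-well plates, lung cancer cell lines were dosed by pin tool. Dosing was either single-drug or a fixed anchor-drug dose plus five library-drug doses (not always all listed) in √10 steps. After 5 days, nuclei were stained in one fix-and-stain step and counted on 4× images, and relative viability is the nuclei count of treated wells over that of vehicle wells, given as the median of duplicate plates.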

Fedratinib + Decitabine = compound: Cc1cnc(Nc2ccc(OCCN3CCCC3)cc2)nc1Nc1cccc(S(=O)(=O)NC(C)(C)C)c1 [Fedratinib] + Nc1ncn([C@H]2C[C@H](O)[C@@H](CO)O2)c(=O)n1 [Decitabine] (partner 2 µM)
Summary of the method: as §1

Fedratinib + Navitoclax = compound: Cc1cnc(Nc2ccc(OCCN3CCCC3)cc2)nc1Nc1cccc(S(=O)(=O)NC(C)(C)C)c1 [Fedratinib] + CC1(C)CCC(c2ccc(Cl)cc2)=C(CN2CCN(c3ccc(C(=O)NS(=O)(=O)c4ccc(N[C@H](CCN5CCOCC5)CSc5ccccc5)c(S(=O)(=O)C(F)(F)F)c4)cc3)CC2)C1 [Navitoclax] (partner 0.5 µM)
Summary of the method: as §1

GW-2580 + Lapatinib = compound: COC1=CC=C(C=C1)COC2=C(C=C(C=C2)CC3=CN=C(N=C3N)N)OC [GW-2580] + CS(=O)(=O)CCNCc1ccc(-c2ccc3ncnc(Nc4ccc(OCc5cccc(F)c5)c(Cl)c4)c3c2)o1 [Lapatinib] (partner 2 µM)
Summary of the method: as §1

Fedratinib + Crizotinib = compound: Cc1cnc(Nc2ccc(OCCN3CCCC3)cc2)nc1Nc1cccc(S(=O)(=O)NC(C)(C)C)c1 [Fedratinib] + C[C@@H](Oc1cc(-c2cnn(C3CCNCC3)c2)cnc1N)c1c(Cl)ccc(F)c1Cl [Crizotinib] (partner 1 µM)
Summary of the method: as §1

Fedratinib + Olaparib = compound: Cc1cnc(Nc2ccc(OCCN3CCCC3)cc2)nc1Nc1cccc(S(=O)(=O)NC(C)(C)C)c1 [Fedratinib] + O=C(c1cc(Cc2n[nH]c(=O)c3ccccc23)ccc1F)N1CCN(C(=O)C2CC2)CC1 [Olaparib] (partner 8 µM)
Summary of the method: as §1

| Cell Line | relative viability (GW-2580 + Dasatinib; first compound 0.08 µM) | relative viability (GW-2580 + Dasatinib; first compound 0.8 µM) | relative viability (GW-2580 + Dasatinib; first compound 2.53 µM) | relative viability (GW-2580 + Dasatinib; first compound 8 µM) | relative viability (Fedratinib + Decitabine; first compound 0.1 µM) | relative viability (Fedratinib + Decitabine; first compound 0.3162 µM) | relative viability (Fedratinib + Decitabine; first compound 1 µM) | relative viability (Fedratinib + Navitoclax; first compound 0.1 µM) | relative viability (Fedratinib + Navitoclax; first compound 0.3162 µM) | relative viability (Fedratinib + Navitoclax; first compound 1 µM) | relative viability (GW-2580 + Lapatinib; first compound 0.08 µM) | relative viability (GW-2580 + Lapatinib; first compound 0.8 µM) | relative viability (GW-2580 + Lapatinib; first compound 2.53 µM) | relative viability (GW-2580 + Lapatinib; first compound 8 µM) | relative viability (Fedratinib + Crizotinib; first compound 0.1 µM) | relative viability (Fedratinib + Crizotinib; first compound 0.3162 µM) | relative viability (Fedratinib + Crizotinib; first compound 1 µM) | relative viability (Fedratinib + Olaparib; first compound 0.1 µM) | relative viability (Fedratinib + Olaparib; first compound 0.3162 µM) | relative viability (Fedratinib + Olaparib; first compound 1 µM) |
| --- | --- | --- | --- | --- | --- | --- | --- | --- | --- | --- | --- | --- | --- | --- | --- | --- | --- | --- | --- | --- |
| NCI-H2087 | 1.11 | 0.846 | 0.785 | 0.774 | 0.206 | 0.242 | 0.219 | 0.928 | 0.962 | 1 | 1.43 | 1.18 | 1.04 | 0.991 | 0.735 | 0.879 | 0.831 | 0.534 | 0.49 | 0.425 |
| NCI-H2126 | 0.599 | 0.736 | 0.627 | 0.522 | 0.532 | 0.596 | 0.605 | 0.852 | 0.831 | 0.86 | 0.767 | 0.835 | 0.679 | 0.833 | 1.01 | 0.989 | 0.996 | 0.927 | 0.939 | 0.938 |
| NCI-H2170 | 0.752 | 0.769 | 0.587 | 0.672 | 0.478 | 0.466 | 0.443 | 0.626 | 0.653 | 0.429 | 0.26 | 0.258 | 0.261 | 0.274 | 1.12 | 1.07 | 0.871 | 0.63 | 0.581 | 0.562 |
| NCI-H2347 | 0.341 | 0.294 | 0.244 | 0.271 | 0.637 | 0.631 | 0.647 | 0.675 | 0.823 | 0.733 | 1.02 | 1.03 | 0.805 | 0.936 | 0.721 | 0.667 | 0.679 | 0.551 | 0.58 | 0.596 |
| NCI-H2405 | 0.203 | 0.205 | 0.222 | 0.213 | 0.729 | 0.725 | 0.663 | 0.583 | 0.895 | 0.506 | 1.05 | 1.16 | 1.02 | 0.912 | 0.796 | 0.849 | 0.818 | 0.837 | 0.835 | 0.802 |
| NCI-H3122 | 0.947 | 1.01 | 0.655 | 0.812 | 0.392 | 0.417 | 0.403 | 1.01 | 0.964 | 1.01 | 1.01 | 1.02 | 0.999 | 1.04 | 0.317 | 0.235 | 0.265 | 0.739 | 0.632 | 0.608 |
| PC-3 [JPC-3] | 0.986 | 1.14 | 0.845 | 1.03 | 0.717 | 0.827 | 0.75 | 0.856 | 0.804 | 0.782 | 0.458 | 0.462 | 0.358 | 0.446 | 0.998 | 0.944 | 0.985 | 1.01 | 1.09 | 1.01 |
| PC-14 | 0.347 | 0.281 | 0.228 | 0.218 | 0.193 | 0.23 | 0.094 | 1.16 | 1.08 | 0.989 | 0.379 | 0.35 | 0.307 | 0.268 | 0.926 | 0.874 | 0.92 | 0.371 | 0.324 | 0.309 |
| RERF-LC-KJ | 0.896 | 0.893 | 0.797 | 0.71 | 0.64 | 0.635 | 0.277 | 0.913 | 0.948 | 1.07 | 0.895 | 0.909 | 0.736 | 0.884 | 0.834 | 0.883 | 0.786 | 0.895 | 0.847 | 0.805 |
| SK-LU-1 | 0.178 | 0.207 | 0.149 | 0.167 | 0.614 | 0.599 | 0.615 |  | 0.917 | 0.611 | 0.962 | 1.14 | 0.829 | 0.979 |  | 0.836 | 0.584 | 0.407 | 0.361 | 0.341 |
| SK-MES-1 | 0.444 | 0.477 | 0.304 | 0.292 | 0.394 | 0.409 | 0.241 | 1.39 | 1.19 | 1.07 | 0.47 | 0.496 | 0.392 | 0.474 | 1.04 | 0.992 | 0.923 | 0.806 | 0.654 | 0.479 |
| SW 1573 | 0.464 | 0.45 | 0.452 | 0.407 | 0.524 | 0.577 | 0.105 | 0.984 | 1 | 0.927 | 0.979 | 1.11 | 1.18 | 0.856 | 0.747 | 0.733 | 0.709 | 0.539 | 0.502 | 0.474 |
| UMC-11 | 0.572 | 0.508 | 0.441 | 0.62 | 0.61 | 0.603 | 0.551 | 0.31 | 0.275 | 0.228 | 1.26 | 1.11 | 0.88 | 1.15 | 0.573 | 0.581 | 0.379 | 0.3 | 0.33 | 0.23 |
